# Patent publication US10526352B2, “Tricyclic benzoxaborole compounds and uses thereof” (GlaxoSmithKline Intellectual Property (No.2) Limited, priority 2013, dated 2020)
# Like-named read-outs stand apart in the source and are kept apart here.
# What was measured:
# E. coli K12 tolC::Tn10 = test: General antimicrobial activity assay (CLSI broth microdilution); assay type: cell-based, Escherichia coli
# Method: (§1) Whole-cell antimicrobial activity was determined by broth microdilution using the Clinical and Laboratory Standards Institute (CLSI) recommended procedure, Document M7-A7, “Methods for Dilution Susceptibility Tests for Bacteria that Grow Aerobically”.
# E. coli K12 = test: as above; assay type: cell-based, Escherichia coli
# Method: as §1
# [1] = tested on: M. tuberculosis standard strain Mtb H37Rv; test: MIC determination against mycobacteria (resazurin, Middlebrook 7H9); assay type: cell-based, Mycobacterium tuberculosis
# P. aeruginosa PA01 = test: General antimicrobial activity assay (CLSI broth microdilution); assay type: cell-based, Pseudomonas aeruginosa
# Method: as §1
# A. baumannii ATCC 17978 = test: as above; assay type: cell-based, Acinetobacter baumannii
# Method: as §1
# [2] = tested on: M. tuberculosis clinical isolates; test: MIC against clinical strains (BACTEC MGIT 960 System); assay type: cell-based; settings: Mycobacterium tuberculosis
# [3] = HepG2 Tox50 (A) / Mtb H37Rv MIC (B)
# [4] = Mycobacterium tuberculosis, H37RV, read-out: Mtb H37Rv MIC (B)
# [5] = Mycobacterium tuberculosis, H37RV; read-out: Mtb H37Rv MIC (B)
Structure (SMILES),Selectivity Index (A/B) (HepG2 cells; [3]),HepG2 cell 48 h Tox50 (A) (HepG2 cells; human) [µM],MIC: E. coli K12 tolC::Tn10 (E. coli K12 tolC::Tn10) [µg/mL],MIC: E. coli K12 (E. coli K12) [µg/mL],"MIC [1, 4] [µM]",MIC: P. aeruginosa PA01 (P. aeruginosa PA01) [µg/mL],MIC: A. baumannii ATCC 17978 (A. baumannii ATCC 17978) [µg/mL],HepG2 cell 48 h Tox50 (A) (HepG2 cells) [µM],also measured
"NCC1OB2OCCOc3cccc1c32 (racemic) [Example C2-H, reference compound]",>26,>50,4,2,1.88,2,2,–,–
"C[C@@]1(CO)COc2ccc(Cl)c3c2B(OC3CN)O1 (single isomer, unassigned) [Example 14, ((2S, 8R or 2R, 8S)-2-(aminomethyl)-3-chloro-8-methyl-7,8-dihydro-2H-1,6,9-trioxa-9a-borabenzo[cd]azulen-8-yl)methanol]",>4,>50,–,–,1.25,–,–,–,–
"Cl.NCC1OB2OCCOc3ccc(Br)c1c32 (centres unmarked) [Example 1, 3-bromo-7,8-dihydro-2H-1,6,9-trioxa-9a-borabenzo[cd]azulen-2-yl)methanamine Hydrochloride]",–,–,–,–,0.18,–,–,–,–
Cl.NCC1OB2OCCOc3ccc(Br)c1c32 (centres unmarked) [Example 1],–,–,>64,>64,–,>64,>64,>50,Selectivity Index (A/B) (HepG2 cells; hydrochloride): >277
"Cl.NCC1OB2OCCOc3ccc(Cl)c1c32 (centres unmarked) [Example 3, 3-chloro-7,8-dihydro-2H-1,6,9-trioxa-9a-borabenzo[cd]azulen-2-yl)methanamine hydrochloride]",–,–,–,–,0.47,–,–,–,–
Cl.NCC1OB2OCCOc3ccc(Cl)c1c32 (centres unmarked) [Example 3],–,–,>64,>64,–,>64,>64,>50,Selectivity Index (A/B) (HepG2 cells; hydrochloride): >106
"Cl.NCC1OB2OCCOc3ccc(F)c1c32 (centres unmarked) [Example 5, (3-fluoro-7,8-dihydro-2H-1,6,9-trioxa-9a-borabenzo[cd]azulen-2-yl)methanamine hydrochloride)]",–,–,–,–,0.6,–,–,–,–
Cl.NCC1OB2OCCOc3ccc(F)c1c32 (centres unmarked) [Example 5],–,–,64,32,–,4,>64,–,–
"Cl.NC[C@H]1OB2OCCOc3ccc(I)c1c32 [Example 6, (S)-(3-iodo-7,8-dihydro-2H-1,6,9-trioxa-9a-borabenzo[cd]azulen-2-yl)methanamine hydrochloride]",–,–,–,–,0.3,–,–,–,–
"CC1COc2ccc(Cl)c3c2B(O1)OC3CN.Cl (centres unmarked) [Example 7, (3-chloro-8-methyl-7,8-dihydro-2H-1,6,9-trioxa-9a-borabenzo[cd]azulen-2-yl)methanamine Hydrochloride]",–,–,>64,>64,0.2,>64,>64,>50,Selectivity Index (A/B) (HepG2 cells): >250
"CC1COc2ccc(Br)c3c2B(O1)OC3CN.Cl (centres unmarked) [Example 8, (3-bromo-8-methyl-7,8-dihydro-2H-1,6,9-trioxa-9a-borabenzo[cd]azulen-2-yl)methanamine hydrochloride]",–,–,>64,>64,0.3,>64,>64,>50,Selectivity Index (A/B) (HepG2 cells): >167
"CC1(C)COc2ccc(Br)c3c2B(OC3CN)O1.Cl (centres unmarked) [Example 9, (3-bromo-8,8-dimethyl-7,8-dihydro-2H-1,6,9-trioxa-9a-borabenzo[cd]azulen-2-yl)methanamine hydrochloride]",–,–,>64,>64,0.3,>64,>64,>50,Selectivity Index (A/B) (HepG2 cells; hydrochloride): >167
"CC1(C)COc2ccc(Br)c3c2B(O[C@@H]3CN)O1.Cl [Example 10, (S)-(3-bromo-8,8-dimethyl-7,8-dihydro-2H-1,6,9-trioxa-9a-borabenzo[cd]azulen-2-yl)methanamine Hydrochloride]",–,–,>64,>64,0.16,>64,>64,–,–
"CC1(C)COc2ccc(Cl)c3c2B(O[C@@H]3CN)O1.Cl [Example 12, (S)-(3-chloro-8,8-dimethyl-7,8-dihydro-2H-1,6,9-trioxa-9a-borabenzo[cd]azulen-2-yl)methanamine Hydrochloride]",–,–,>64,>64,0.08,>64,>64,–,–
"Cl.NC[C@H]1OB2O[C@H](CO)COc3ccc(F)c1c32 [Example 13, ((2S,8R)-2-(aminomethyl)-3-fluoro-7,8-dihydro-2H-1,6,9-trioxa-9a-borabenzo[cd]azulen-8-yl)methanol Hydrochloride]",–,–,–,–,0.55,–,–,>50,Selectivity Index (A/B) (HepG2 cells): >10
"C[C@]1(CO)COc2ccc(Cl)c3c2B(OC3CN)O1 (stereo partly drawn) [Example 15, ((2S, 8S, or 2R, 8R)-2-(aminomethyl)-3-chloro-8-methyl-7,8-dihydro-2H-1,6,9-trioxa-9a-borabenzo[cd]azulen-8-yl)methanol]",>50,>50,–,–,0.93,–,–,–,–
"C[C@@]1(CO)COc2ccc(Br)c3c2B(OC3CN)O1 (stereo partly drawn) [Example 16, ((2S, 8R, or 2R, 8S)-2-(aminomethyl)-3-bromo-8-methyl-7,8-dihydro-2H-1,6,9-trioxa-9a-borabenzo[cd]azulen-8-yl)methanol]",>40,>50,–,–,1.25,–,–,–,–
"c1cc2c3c(c1)OCCOB3OC2 [Example C1-H, reference compound]",–,–,–,–,–,–,–,–,"MIC [1, 5]: 31 µM"
"NCCOc1cccc2c1B(O)OC2 [Example C3-H, reference compound]",>0.8,–,–,–,–,–,–,>50,"MIC [1, 5]: 62 µM"
"CCOc1cccc2c1B(O)O[C@@H]2CN [Example C5-H, reference compound]",3,–,–,–,–,–,–,1.8,"MIC [1, 5]: 0.6 µM"
"CC1COc2c(Cl)cc(Cl)c3c2B(O1)OC3CN (centres unmarked) [Example C7-Cl2, reference compound]",>20,>50,–,–,2.5,–,–,–,–
"CC1(C)COc2c(Cl)ccc3c2B(OC3CN)O1 (centres unmarked) [Example C8-Cl, reference compound]",10,>50,–,–,> 5,–,–,–,–
"CC1(C)COB2OC(CN)c3c(Cl)ccc(c32)O1 (centres unmarked) [Example C9-Cl, reference compound]",>10,>50,–,–,5,–,–,–,–
"CC1(C)COB2OC(CN)c3cccc(c32)O1 (centres unmarked) [Example C10-H, reference compound]",10,>50,–,–,> 5,–,–,–,–
"NC[C@H]1OB2OCCOc3c(Cl)cc(Cl)c1c32 [Example C14-Cl2, reference compound]",>10,>50,–,–,> 5,–,–,–,–
NC[C@H]1OB2OCCOc3ccc(Cl)c1c32 [Example G4-Cl],–,–,–,–,–,–,–,–,"MIC ([2]; for all of but 1 of the 40 clinical isolate strains tested): < 1 µM; MIC ([2]; read-out: measured MIC (breakdown), for 1 strain of 97 clinical isolates): ≤ 0.2 µM; MIC ([2]; read-out: measured MIC (breakdown), for 3 strains of 97 clinical isolates): 0.31 µM; MIC ([2]; read-out: measured MIC (breakdown), for 8 strains of 97 clinical isolates (first group)): 0.04 µM; MIC ([2]; read-out: measured MIC (breakdown), for 8 strains of 97 clinical isolates (second group)): 0.16 µM; MIC ([2]; read-out: measured MIC (breakdown), for 76 strains of 97 clinical isolates): 0.08 µM"
